What was measured:
Plasmodium falciparum [1] = assay: Antimalarial activity against chloroquine-susceptible Plasmodium falciparum 3D7 infected in human A+ RBC assessed as inhibition of [3H]hypoxanthine uptake after 48 hrs by scintillation counting; type: functional, organism-based
Plasmodium falciparum [2] = assay: Antimalarial activity against chloroquine-resistant Plasmodium falciparum W2 infected in human A+ erythrocytes assessed as inhibition of [3H]hypoxanthine uptake after 48 hrs by scintillation counting; type: functional, organism-based

Structure (SMILES)	IC50 (Plasmodium falciparum [1])	IC50 (Plasmodium falciparum [2])
Clc1ccc2c(NCCNCc3cccc4ccccc34)ccnc2c1	471 nM	1200 nM
Clc1ccc2c(NCCNCc3c4ccccc4cc4ccccc34)ccnc2c1	84 nM	797 nM
Clc1ccc2c(NCCNCc3ccc4ccccc4c3)ccnc2c1	48 nM	820 nM
